Columns and labels:
MCL-1 = MCL-1 (Homo sapiens, UniProt Q07820); settings: background statement; cited from earlier work
[1] = test system: BCL-XL-addicted H23 cells; experiment: Treatment of engineered H23 cell lines with BCL-2, BCL-XL and MCL-1 inhibitors to confirm selective addiction; settings: BCL-XL-addicted H23 cells (BCL-XL overexpression, MCL-1 knockdown); FIG. 3B
Text: Isogenic H23 cancer cell lines with selective addiction to MCL-1, BCL-2, or BCL-XL.

parental H23 cells = experiment: Treatment of parental (MCL-1-addicted) H23 cells with BCL-2, BCL-XL and MCL-1 inhibitors; assay type: cell-based, human; settings: parental H23 cells (MCL-1-addicted); FIG. 3B
BCL-2-addicted H23 cells = experiment: Treatment of engineered H23 cell lines with BCL-2, BCL-XL and MCL-1 inhibitors to confirm selective addiction; assay type: cell-based, human; settings: BCL-2-addicted H23 cells (BCL-2 overexpression, MCL-1 knockdown); FIG. 3B
A549 cells = experiment: ABT-737-induced apoptosis after knockdown of MCL-1; assay type: cell-based, human; settings: A549 cells with knockdown of MCL-1
wild-type cells = experiment: Sensitivity of wild-type cells to BH3-only proteins; assay type: cell-based, mouse; settings: wild-type cells lacking pre-assembled cell death priming complexes; FIG. 2B
Text: (§1) Importantly, this system mimics the “primed” cell death state of many cancers with abundant pre-assembled complexes of BCL-XL/BIM, BCL-XL/PUMA, BCL-2/BIM, BCL-2/PUMA, MCL-1/BIM or MCL-1/PUMA. […] In addition, compounds that downregulate MCL-1 mRNA and/or protein or induce endogenous NOXA, BIM, or PUMA will trigger similar death patterns.

[2] = test system: MCL-1-IRES-BIM or MCL-1-IRES-PUMA MEFs; experiment: Apoptosis induction by BH3-only proteins in engineered MEFs; assay type: cell-based, mouse; settings: MCL-1-addicted MEFs; FIGS. 2A and 2B
Text: (§2) Cellular dependency on BCL-2, BCL-XL or MCL-1 for survival is governed by the relative abundance among these proteins (FIG. 1). Intricate interplays among the BCL-2 subfamilies govern cellular survival/death, and also provide a molecular blueprint concerning the clinical application of BH3-mimetics in killing cancer cells. Using MEFs that express different combinations of anti-apoptotic BCL-2 members and activator BH3s, a system has been built that can distinguish between the inhibition of BCL-2/BCL-XL and MCL-1 by BAD/BAD mimetics and […]/NOXA mimetics, respectively (FIGS. 2A and 2B).
as §1

[3] = test system: BCL-XL-IRES-BIM, BCL-XL-IRES-PUMA, BCL-2-IRES-BIM or BCL-2-IRES-PUMA MEFs; experiment: as above; assay type: cell-based, mouse; settings: BCL-XL- or BCL-2-addicted MEFs; FIGS. 2A and 2B
Text: as §2, §1

Chain of MCL-1 (Q07820 whole entry): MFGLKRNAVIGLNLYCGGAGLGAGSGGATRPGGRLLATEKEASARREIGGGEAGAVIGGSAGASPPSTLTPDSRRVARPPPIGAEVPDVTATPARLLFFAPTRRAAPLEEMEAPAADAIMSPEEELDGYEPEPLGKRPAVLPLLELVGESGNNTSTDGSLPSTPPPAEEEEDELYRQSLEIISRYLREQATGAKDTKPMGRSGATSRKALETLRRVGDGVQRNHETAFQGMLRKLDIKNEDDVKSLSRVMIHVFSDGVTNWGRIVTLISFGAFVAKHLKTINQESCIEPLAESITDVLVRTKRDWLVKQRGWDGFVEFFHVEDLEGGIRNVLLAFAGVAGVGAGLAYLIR

Molecule: CC1(C)CCC(c2ccc(Cl)cc2)=C(CN2CCN(c3ccc(C(=O)NS(=O)(=O)c4ccc(N[C@H](CCN5CCOCC5)CSc5ccccc5)c(S(=O)(=O)C(F)(F)F)c4)cc3)CC2)C1 [ABT-263]
- inhibition of MCL-1 (MCL-1): fail to inhibit

Molecule: CN(C)CC[C@H](CSc1ccccc1)Nc1ccc(S(=O)(=O)NC(=O)c2ccc(N3CCN(Cc4ccccc4-c4ccc(Cl)cc4)CC3)cc2)cc1[N+](=O)[O-] [ABT-737, (R)-4-(4-((4′-chloro-[1,1′-biphenyl]-2-yl)methyl)piperazin-1-yl)-N-((4-((-4-(dimethylamino)-1-(phenylthio)butan-2-yl)amino)-3-nitrophenyl)sulfonyl)benzamide]
- sensitivity of cells to inhibitor [1]: sensitive
- sensitivity of cells to inhibitor (parental H23 cells): only sensitive to inhibitors of MCL-1
- sensitivity of cells to inhibitor (BCL-2-addicted H23 cells): sensitive
- susceptibility to ABT-737-induced apoptosis (A549 cells): susceptible

Molecule: NOXA: pro-apoptotic BH3-only member of the BCL-2 protein family that specifically inactivates MCL-1 (MPGKKARKNAQPSPARAPAELEVECATQLRRFGDKLNFRQKLLNLISKLFCSGT; UniProt Q13794 1-54, looked up)
- sensitivity of wild-type cells (wild-type cells): less sensitive
- induction of apoptosis [2]: selectively induces apoptosis

B1: BAD: pro-apoptotic BH3-only BCL-2 family protein that binds to BCL-XL and BCL-2 but not MCL-1 (protein, UniProt Q92934 1-168, looked up)
Bcl2-associated agonist of …: MFQIPEFEPSEQEDSSSAERGLGPSPAGDGPSGSGKHHRQAPGLLWDASHQQEQPTSSSHHGGAGAVEIRSRHSSYPAGTEDDEGMGEEPSPFRGRSRSAPPNLWAAQRYGRELRRMSDEFVDSFKKGLPRPKSAGTATQMRQSSSWTRVFQSWWDRNLGRGSSAPSQ
- sensitivity of wild-type cells (wild-type cells): less sensitive
- induction of apoptosis [3]: induces apoptosis

Source: patent US20180335421A1, “METHOD FOR SCREENING INHIBITORS TARGETING ANTI-APOPTOTIC SURVIVAL PATHWAYS” (Memorial Sloan-Kettering Cancer Center, priority 2015, published 2018)
